row,melting point [°C],SMILES
1,79 to 109,"CN1C(=O)N(c2cc(Cl)cc(Cl)c2)C(=O)[C@]12CN(CN1C[C@H](c3ccc(C#N)cc3)[C@@]3(C1)C(=O)N(c1cc(Cl)cc(Cl)c1)C(=O)N3C)C[C@H]2c1ccc(C#N)cc1 (hydrate or solvate) [Example 6a, Meso Aminal Dimer of 4-[3-(3,5-Dichlorophenyl)-1-methyl-2,4-dioxo-1,3,7-triazaspiro[4.4]non-9-yl]-benzonitrile]"
2,31 to 47,"CN1C(=O)N(c2cc(Cl)cc(Cl)c2)C(=O)[C@]12CN(CN1C[C@@H](c3ccc(C#N)cc3)[C@]3(C1)C(=O)N(c1cc(Cl)cc(Cl)c1)C(=O)N3C)C[C@H]2c1ccc(C#N)cc1 (racemic) (hydrate or solvate) [Example 6b, Racemic Aminal Dimer of 4-[3-(3,5-Dichlorophenyl)-1-methyl-2,4-dioxo-1,3,7-triazaspiro[4.4]non-9-yl]-benzonitrile]"
3,204 to 207,COC(=O)c1csc(CN2C[C@@H](c3ccc(C#N)cc3)[C@]3(C2)C(=O)N(c2cc(Cl)cc(Cl)c2)C(=O)N3C)c1.Cl (stereo in doubt)
